Test results from patent US4400517A, “Phosphoric esters derived from 1,2,4-triazole having an insecticidal, nematocidal and acaricidal action, and their preparation” (priority 1976, dated 1983).

Test system: Spodoptera littoralis
Experiment: Biological activity on Spodoptera littoralis (Lepidoptera)
Format: in vivo
Settings: 48 h, 0.05%o, Table 5, read-out: Activity (mortality class), Spodoptera L.
Procedure: (7) Biological activity on Spodoptera littoralis (Lepidoptera)
Cut tobacco leaves were sprinkled with an aqueous dispersion of the products under examination (see Tables 4 and 5).
After drying, the leaves were infested with 5-day old larvae.
The percentage of mortality of the larvae was determined after 48 hours from treatment (untreated leaves, mortality=0).

| Compound | mortality at 0.005 % [%] |
| --- | --- |
| CCOP(=S)(OCC)Oc1nc(C=C(Cl)Cl)nn1C(C)C [M 8450] | 100 |
| CCCCn1nc(C=C(Cl)Cl)nc1OP(=S)(OCC)OCC [M 8474] | 100 |
| CCOP(=S)(OCC)Oc1nc(C=C(Cl)Cl)nn1CC(C)C [M 8498] | 100 |
| CCOP(=S)(OCC)Oc1nc(C=C(Cl)Cl)nn1CC [M 5349/40] | 100 |
| COP(=S)(OC)Oc1nc(C=C(Cl)Cl)nn1C(C)C [M 8499] | 100 |
| CCOP(=S)(OCC)Oc1nc(C=C(C)C)nn1C [M 8483] | 10 to 69 |
| CCOP(=S)(OCC)Oc1nc(C=C(SC)SC)nn1C [M 8825] | 10 to 69 |
| CCOP(=S)(OC)Oc1nc(C=C(Cl)Cl)nn1C (stereo not shown) [M 9750] | 100 |

Same assay, conditions: 48 h, 1%o, Table 5, read-out: Activity (mortality class), Spodoptera L.

| Compound | mortality at 0.1 % [%] |
| --- | --- |
| CCOP(=S)(OCC)Oc1nc(C(Br)=C(Br)Br)nn1C [M 8089, O,O-diethyl-O-(1-methyl-3-tribromovinyl-5-triazolyl)-thiophosphate] | 100 |
| CCOP(=S)(OCC)Oc1nc(C(C)=O)nn1-c1ccccc1 [M 7650] | 70 to 99 |
| CCCC=C(CC)c1nc(OP(=S)(OCC)OCC)n(C)n1 [M 8591] | 100 |
| CCOP(=S)(OCC)Oc1nc(C=C(SC)SC)nn1C [M 8825] | 100 |
| CCOP(=S)(OC)Oc1nc(C=C(Cl)Cl)nn1C (stereo not shown) [M 9750] | 100 |

Test system: Tetranychus urticae
Experiment: Biological activity on adults of Tetranychus urticae (Acari)
Format: in vivo
Settings: 24 h, 0.01%o, Table 5, read-out: Activity (mortality class), Tetranychus U. (adults)
Procedure: (5) Biological activity on adults of Tetranychus urticae (Acari)
Discs of bean leaves were infested with adult acari and then sprinkled with an aqueous dispersion of the products under examination (see Tables 4 and 5).
The mortality percentage was determined after 24 hours from treatment (untreated leaf discs, mortality=0).

| Compound | mortality at 0.001 % [%] |
| --- | --- |
| CCOP(=S)(OCC)Oc1nc(C=C(Cl)Cl)nn1C(C)C [M 8450] | 100 |
| CCCCn1nc(C=C(Cl)Cl)nc1OP(=S)(OCC)OCC [M 8474] | 0 to 9 |
| CCOP(=S)(OCC)Oc1nc(C=C(Cl)Cl)nn1CC(C)C [M 8498] | 10 to 69 |
| CCOP(=S)(OCC)Oc1nc(C=C(Cl)Cl)nn1CC [M 5349/40] | 100 |
| COP(=S)(OC)Oc1nc(C=C(Cl)Cl)nn1C(C)C [M 8499] | 10 to 69 |
| CCOP(=S)(OCC)Oc1nc(C=C(C)C)nn1C [M 8483] | 100 |
| CCCC=C(CC)c1nc(OP(=S)(OCC)OCC)n(C)n1 [M 8591] | 100 |
| CCOP(=S)(OCC)Oc1nc(C=C(SC)SC)nn1C [M 8825] | 100 |
| CCOP(=S)(OC)Oc1nc(C=C(Cl)Cl)nn1C (stereo not shown) [M 9750] | 100 |

Same assay, conditions: 24 h, 1%o, Table 5, read-out: Activity (mortality class), Tetranychus U. (adults)

| Compound | mortality at 0.1 % [%] |
| --- | --- |
| CCOP(=S)(OCC)Oc1nc(C(Br)=C(Br)Br)nn1C [M 8089, O,O-diethyl-O-(1-methyl-3-tribromovinyl-5-triazolyl)-thiophosphate] | 100 |
| CCOP(=S)(OCC)Oc1nc(C(C)=O)nn1-c1ccccc1 [M 7650] | 100 |
| CCCC=C(CC)c1nc(OP(=S)(OCC)OCC)n(C)n1 [M 8591] | 100 |
| CCOP(=S)(OCC)Oc1nc(C=C(SC)SC)nn1C [M 8825] | 100 |
| CCOP(=S)(OC)Oc1nc(C=C(Cl)Cl)nn1C (stereo not shown) [M 9750] | 100 |

Test system: Blatta orientalis
Experiment: Biological activity on Blatta orientalis (Ortoptera)
Format: in vivo
Settings: Blatta orientalis, 48 h, read-out: Activity (mortality class), Blatta O.
Procedure: (10) Biological activity on Blatta orientalis (Ortoptera)
The bottom and walls of glass crystallizers were treated uniformly with an acetonic solution of the products under examination (see Tables 4 and 5). After evaporation of the solvent, into each crystallizer were introduced ten 80-100 days old neanides. The crystallizers were then closed with a metal net cover. After 24 hours from the start of the treatment, the insects were transferred to similar untreated crystallizers, and there were appropriately nourished in conventional manner.
The percentage of mortality (untreated insects=0) was determined after 48 hours from the start of the treatment.

| Compound | mortality at 0.01 g/m2 [%] |
| --- | --- |
| CCOP(=S)(OCC)Oc1nc(C=C(C)C)nn1C [M 8483] | 100 |

Same assay, conditions: Blatta orientalis, 48 h; 0,01 g/m^2; Table 5; read-out: Activity (mortality class), Blatta O.

| Compound | mortality at 0.01 g/m2 [%] |
| --- | --- |
| CCOP(=S)(OCC)Oc1nc(C=C(Cl)Cl)nn1C(C)C [M 8450] | 70 to 99 |
| CCCCn1nc(C=C(Cl)Cl)nc1OP(=S)(OCC)OCC [M 8474] | 0 to 9 |
| CCOP(=S)(OCC)Oc1nc(C=C(Cl)Cl)nn1CC(C)C [M 8498] | 10 to 69 |
| CCOP(=S)(OCC)Oc1nc(C=C(Cl)Cl)nn1CC [M 5349/40] | 70 to 99 |
| COP(=S)(OC)Oc1nc(C=C(Cl)Cl)nn1C(C)C [M 8499] | 10 to 69 |
| CCOP(=S)(OCC)Oc1nc(C=C(SC)SC)nn1C [M 8825] | 10 to 69 |
| CCOP(=S)(OC)Oc1nc(C=C(Cl)Cl)nn1C (stereo not shown) [M 9750] | 100 |

Same assay, conditions: Blatta orientalis, 48 h; 1 g/m^2; Table 5; read-out: Activity (mortality class), Blatta O.

| Compound | mortality at 1 g/m2 [%] |
| --- | --- |
| CCOP(=S)(OCC)Oc1nc(C(Br)=C(Br)Br)nn1C [M 8089, O,O-diethyl-O-(1-methyl-3-tribromovinyl-5-triazolyl)-thiophosphate] | 100 |
| CCCC=C(CC)c1nc(OP(=S)(OCC)OCC)n(C)n1 [M 8591] | 100 |
| CCOP(=S)(OCC)Oc1nc(C=C(SC)SC)nn1C [M 8825] | 100 |
| CCOP(=S)(OC)Oc1nc(C=C(Cl)Cl)nn1C (stereo not shown) [M 9750] | 100 |

Test system: Leptinotarsa decemlineata
Experiment: Biological activity on Leptinotarsa decemlineata (Coleoptera)
Format: in vivo
Settings: 48 h, 0.05%o, Table 5, read-out: Activity (mortality class), Leptinotarsa D.
Procedure: (3) Biological activity on Leptinotarsa decemlineata (Coleoptera)
Small potato plants grown in pots were infested with 4-day old larvae, and were then sprinkled with an aqueous dispersion of the products under examination (see Tables 4 and 5).
The mortality percentage (untreated small plants=0) was determined after 48 hours from treatment.

| Compound | mortality at 0.005 % [%] |
| --- | --- |
| CCOP(=S)(OCC)Oc1nc(C=C(Cl)Cl)nn1C(C)C [M 8450] | 10 to 69 |
| CCCCn1nc(C=C(Cl)Cl)nc1OP(=S)(OCC)OCC [M 8474] | 100 |
| CCOP(=S)(OCC)Oc1nc(C=C(Cl)Cl)nn1CC(C)C [M 8498] | 10 to 69 |
| CCOP(=S)(OCC)Oc1nc(C=C(Cl)Cl)nn1CC [M 5349/40] | 100 |
| COP(=S)(OC)Oc1nc(C=C(Cl)Cl)nn1C(C)C [M 8499] | 0 to 9 |
| CCOP(=S)(OCC)Oc1nc(C=C(C)C)nn1C [M 8483] | 70 to 99 |
| CCOP(=S)(OCC)Oc1nc(C=C(SC)SC)nn1C [M 8825] | 100 |
| CCOP(=S)(OC)Oc1nc(C=C(Cl)Cl)nn1C (stereo not shown) [M 9750] | 10 to 69 |

Same assay, conditions: 48 h, 1%o, Table 5, read-out: Activity (mortality class), Leptinotarsa D.

| Compound | mortality at 0.1 % [%] |
| --- | --- |
| CCOP(=S)(OCC)Oc1nc(C(Br)=C(Br)Br)nn1C [M 8089, O,O-diethyl-O-(1-methyl-3-tribromovinyl-5-triazolyl)-thiophosphate] | 100 |
| CCOP(=S)(OCC)Oc1nc(C(C)=O)nn1-c1ccccc1 [M 7650] | 0 to 9 |
| CCCC=C(CC)c1nc(OP(=S)(OCC)OCC)n(C)n1 [M 8591] | 100 |
| CCOP(=S)(OCC)Oc1nc(C=C(SC)SC)nn1C [M 8825] | 100 |
| CCOP(=S)(OC)Oc1nc(C=C(Cl)Cl)nn1C (stereo not shown) [M 9750] | 100 |

Test system: Pieris brassicae
Experiment: Biological activity on Pieris brassicae (Lepidoptera)
Format: in vivo
Settings: 48 h, 0.01%o, Table 5, read-out: Activity (mortality class), Pieris B.
Procedure: (2) Biological activity on Pieris brassicae (Lepidotera)
Cut-off cauliflower leaves were sprinkled with an aqueous dispersion of the products under examination (see TABLE 5).
After drying, the leaves were infested with 5-day old larvae. The percentage of mortality of the larvae (untreated leaves=0) was determined after 48 hours from treatment.

| Compound | mortality at 0.001 % [%] |
| --- | --- |
| CCOP(=S)(OCC)Oc1nc(C=C(Cl)Cl)nn1C(C)C [M 8450] | 100 |
| CCCCn1nc(C=C(Cl)Cl)nc1OP(=S)(OCC)OCC [M 8474] | 100 |
| CCOP(=S)(OCC)Oc1nc(C=C(Cl)Cl)nn1CC(C)C [M 8498] | 100 |
| CCOP(=S)(OCC)Oc1nc(C=C(Cl)Cl)nn1CC [M 5349/40] | 100 |
| COP(=S)(OC)Oc1nc(C=C(Cl)Cl)nn1C(C)C [M 8499] | 10 to 69 |
| CCOP(=S)(OCC)Oc1nc(C=C(SC)SC)nn1C [M 8825] | 0 to 9 |

Same assay, conditions: 48 h, 1%o, Table 5, read-out: Activity (mortality class), Pieris B.

| Compound | mortality at 0.1 % [%] |
| --- | --- |
| CCOP(=S)(OCC)Oc1nc(C(Br)=C(Br)Br)nn1C [M 8089, O,O-diethyl-O-(1-methyl-3-tribromovinyl-5-triazolyl)-thiophosphate] | 100 |
| CCOP(=S)(OCC)Oc1nc(C(C)=O)nn1-c1ccccc1 [M 7650] | 100 |
| CCCC=C(CC)c1nc(OP(=S)(OCC)OCC)n(C)n1 [M 8591] | 100 |
| CCOP(=S)(OCC)Oc1nc(C=C(SC)SC)nn1C [M 8825] | 100 |

Same assay, conditions: 48 h, read-out: Activity (mortality class), Pieris B.

| Compound | mortality at 0.001 % [%] |
| --- | --- |
| CCOP(=S)(OCC)Oc1nc(C=C(C)C)nn1C [M 8483] | 10 to 69 |

Test system: Culex pipiens
Experiment: Biological activity on Culex pipiens larvae (Diptera)
Format: in vivo
Settings: 24 h, 0.02 ppm, Table 5, read-out: Activity (mortality class), Culex P. (larvae)
Procedure: (4) Biological activity on Culex pipiens (Diptera)
Into glasses containing an aqueous dispersion of the products under examination (see Tables 4 and 5) there were introduced mosquito larvae of third and fourth age.
The mortality percentage of the larvae (glasses containing pure water=0) was determined after 24 hours from treatment.

| Compound | mortality at 0.02 ppm [%] |
| --- | --- |
| CCOP(=S)(OCC)Oc1nc(C=C(Cl)Cl)nn1C(C)C [M 8450] | 100 |
| CCCCn1nc(C=C(Cl)Cl)nc1OP(=S)(OCC)OCC [M 8474] | 100 |
| CCOP(=S)(OCC)Oc1nc(C=C(Cl)Cl)nn1CC(C)C [M 8498] | 70 to 99 |
| CCOP(=S)(OCC)Oc1nc(C=C(Cl)Cl)nn1CC [M 5349/40] | 100 |
| COP(=S)(OC)Oc1nc(C=C(Cl)Cl)nn1C(C)C [M 8499] | 10 to 69 |
| CCOP(=S)(OCC)Oc1nc(C=C(C)C)nn1C [M 8483] | 10 to 69 |
| CCOP(=S)(OCC)Oc1nc(C=C(SC)SC)nn1C [M 8825] | 70 to 99 |
| CCOP(=S)(OC)Oc1nc(C=C(Cl)Cl)nn1C (stereo not shown) [M 9750] | 100 |

Same assay, conditions: 24 h, 2 ppm, Table 5, read-out: Activity (mortality class), Culex P. (larvae)

| Compound | mortality at 2 ppm [%] |
| --- | --- |
| CCOP(=S)(OCC)Oc1nc(C(Br)=C(Br)Br)nn1C [M 8089, O,O-diethyl-O-(1-methyl-3-tribromovinyl-5-triazolyl)-thiophosphate] | 100 |
| CCOP(=S)(OCC)Oc1nc(C(C)=O)nn1-c1ccccc1 [M 7650] | 100 |
| CCCC=C(CC)c1nc(OP(=S)(OCC)OCC)n(C)n1 [M 8591] | 100 |
| CCOP(=S)(OCC)Oc1nc(C=C(SC)SC)nn1C [M 8825] | 100 |
| CCOP(=S)(OC)Oc1nc(C=C(Cl)Cl)nn1C (stereo not shown) [M 9750] | 100 |
